# Assay results reported in patent US8329141B2, “Locoregional internal radionuclide ablation of abnormal tissues” (Board of Regents, The University of Texas System, priority 2004, dated 2012).
# Experiments:
# [1] = intratracheal instillation (Hirano et al. 1990); cited from earlier work
# [2] = Biodistribution and projected human radiation dosimetry after intravenous or intramuscular injection; format: in vivo, female Fisher rats; conditions: for human dosimetry estimate, kidney / human dosimetry estimate, red marrow: from rat biodistribution
# Experimental: To evaluate the radiation toxicity of YCl3 after intravenous or intramuscular injection, parallel experiments were performed to evaluate the biodistribution and projected human radiation dosimetry of both ^111In—Cl and YCl3. The experiments used three female Fisher rats (140-160 grams) for each set of injections. Each rat was injected intravenously, or was injected intramuscularly in the right thigh, with 0.05 mCi of YCl3 or ^111In—Cl (with no carrier added) in 0.1 ml saline (pH 5-6). The effect of initial exposure of the radiopharmaceuticals to interstitial fluid was estimated by serum protein binding experiments using Millipore Centrifree filters as set forth in Example 2. Organs including the right and left femur, as well as the right and left thigh muscles, were harvested from each rat 7 days after injection. Human dosimetry for each radiopharmaceutical was constructed using established anthropomorphic models.
# [3] = tested on: serum proteins; assay: Binding to serum proteins (Centrifree filter separation); format: in vitro ADME, human (patients); conditions: 0.2, 0.5 or 1 μCi added to diluted serum protein, 20 minutes; physiologic range, all concentrations tested
# Experimental: To test the hypothesis that local sequestration of ^111In—Cl is due to protein binding, both ^111In—Cl and YCl3 were tested for binding to CSF and serum proteins. Serum proteins were obtained from residual baseline serum and CSF proteins were obtained from patients participating in other research protocols who had consented to blood sampling. To determine the level of ^111In—Cl protein binding, 0.2, 0.5, or 1 μCi of ^111In—Cl was added to diluted CSF (0.125 or 0.5) or diluted serum protein (0.125 and 0.25) and incubated for 20 minutes. To determine the level of YCl3 protein binding, 0.2, 0.5, or 1 μCi of YCl3 was added to diluted CSF (0.063 or 0.5) or diluted serum protein (0.063 and 0.375), and incubated for 20 minutes. After incubation, free radiopharmaceuticals were separated from protein bound ^111In—Cl or YCl3 using Amicon Centrifree Micropartition filters in a single centrifugation step at 3000 g for 15 minutes according to manufacturer's instructions (Amicon, Beverly, Mass.). The percent binding of YCl3 or ^111In—Cl to the CSF or serum protein was then calculated. As shown in FIG. 6 and FIG. 7 respectively, both YCl3 and ^111In—Cl bind avidly to CSF and serum protein within the physiologic range (a dilution factor between 0.2 and 0.6) at all concentrations tested. At room temperature, both YCl3 and ^111In—Cl have greater than 95% binding to serum proteins. […]
structure (smiles),measurement,setting,value
"[Cl][90Y]([Cl])[Cl] [YCl3, Yttrium-90 chloride]",pulmonary retention half-life,[1],169 days
same,skeletal distribution,[2]; estimated from the left femur (opposite to the injection site),about 16%
same,radiation uptake in the right thigh muscle,[2]; intramuscular injection in right thigh,high
same,radiation uptake in right femur versus contralateral organ,"[2]; intramuscular injection in right thigh, decreasing over time to",3 times higher
same,radiation uptake in right femur versus contralateral organ,"[2]; intramuscular injection in right thigh, initial",6 times higher
same,"human dosimetry estimate, kidney",[2]; intramuscular,1.47 cGy/mCi
same,"human dosimetry estimate, red marrow",[2]; intramuscular,0.65 cGy/mCi
same,organs with the highest uptake,"[2]; intravenous injection, 0.05 mCi in 0.1 ml saline","spleen, liver, and kidney"
same,"human dosimetry estimate, kidney",[2]; intravenous,13.1 cGy/mCi
same,"human dosimetry estimate, red marrow",[2]; intravenous,5.77 cGy/mCi
same,binding to serum protein,[3],bind avidly
